Assay: gradient 5% acetonitrile 3 min, to 50% in 2 min, to 85% in 15 min, held 3 min, 100 µL/min
Conditions: column: Zorbax Extend-C18 2.1 x 50 mm; eluents: water / acetonitrile, 0.1% formic acid
Summary of the method: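 Values are retention times taken from adduct peaks that software picked and an analyst inspected. The pure standards were run as mixtures of ~100 molecules on HPLC linked to a quadrupole time-of-flight mass spectrometer, in positive and negative ionization mode. A Zorbax Extend-C18 column (2.1 × 50 mm, 1.8 μm) was used at 100 μL/min with water and acetonitrile, each including 0.1% formic acid.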

Row | SMILES | RP-LC retention time [s]
1 | CC(CCNC(=O)CN1C(=O)C2CCCCN2c2ccc(C(=O)N3CCCC3)cc21)N1CCCC1 (stereo unspecified) | 614
2 | O=C(C1CC1)N1[C@H]2CC[C@@H]1c1cnc(-c3ccc(F)cc3)nc1C2 | 870
3 | Cc1cc(=O)n(CC(=O)NC(C)CCc2ccccc2)c(N2CCc3ccccc3C2)n1 (stereo unspecified) | 872
4 | Cc1ccc(C)c(N2CCN(S(=O)(=O)c3ccc(-c4nnc(C5CC5)o4)o3)CC2)c1 | 1130
5 | COc1ccc(C(C)NC(=O)Cc2cn(C)c3ncccc23)cc1 (stereo unspecified) | 678
6 | Fc1ccc(-c2nnc(Cc3nc(-c4cccc(Br)c4)no3)o2)cc1 | 1090
7 | CCn1cnc(S(=O)(=O)N2CCC(C(=O)Nc3ccc(C)cn3)CC2)c1 | 592
8 | CCn1nc(C)c2c(-c3ccccc3)cc(OC(C)C(=O)NCc3ccco3)nc21 (stereo unspecified) | 782
9 | CCCn1c(C)cnc1C1CN(S(=O)(=O)c2cccc3cccnc23)C1 | 624
10 | CN1C(=O)COc2ccc(-c3csc(NC(=O)c4ccccc4)n3)cc21 | 926
11 | CC12CC(Br)(Br)C(=O)C3C1CCCC32 | 1100
12 | O=C(CSc1nnc(NC(=O)C2CCCCC2)s1)Nc1ccc2c(c1)OCO2 | 802
13 | CC(C)NC(=O)c1ccc(OCC2CCCN(C(=O)c3ccccc3F)C2)cc1 (stereo unspecified) | 830
14 | c1ccc(-c2nc(-c3ccncc3)no2)c(OC2CCN(Cc3ccc4c(c3)CCO4)C2)c1 (stereo unspecified) | 611
15 | CCN(C(=O)C1CCN(S(=O)(=O)c2ccc3c(c2)NC(=O)CO3)CC1)c1ccccc1 | 794
16 | COc1cc2c(cc1OC)C1C(C(=O)NCCCN3CCC(C)CC3)c3ccccc3C(=O)N1CC2 (stereo unspecified) | 629
17 | Cc1noc(C2CN(C(=O)Nc3cccc(Cl)c3C)CC23CCOCC3)n1 (stereo unspecified) | 792
18 | Cc1ccc(NC(=O)N2CC(N(C)Cc3cccnc3)C2)cc1C | 605

Row | SMILES | RP-LC retention time [s]
19 | COc1ccc(C)cc1NC(=O)Cn1c(=O)c(CCC(=O)NCC(C)C)nc2ccccc21 | 852
20 | CCc1nnc(-c2cc(C)n(CC(=O)Nc3cc(OC)cc(OC)c3)c2C)o1 | 807
21 | CN1Cc2c(N)cccc2C(c2ccccc2)C1 (stereo unspecified) | 678
22 | O=C(c1ccc(F)cc1F)N1CCN(c2cc(-c3ccc(Cl)cc3)[nH]n2)CC1 | 894
23 | CCOC(=O)C1CCC(CNC(=O)N2CCN(Cc3nc4ccc(Cl)cc4o3)CC2)CC1 (stereo unspecified) | 697
24 | CCc1ccc(NC(=O)N2CCCC(C)(C(=O)NCc3ccccc3)C2)cc1 (stereo unspecified) | 878
25 | CC(C)n1c(=O)oc2cc(-c3noc(CNC(=O)Cc4ccc(Cl)cc4)n3)ccc21 | 911
26 | Cc1cc(C)cc(N2C(=O)CN(S(C)(=O)=O)CC2(C)C(=O)NCc2ccc(Cl)cc2)c1 (stereo unspecified) | 919
27 | COc1cccc(CNC(=O)c2cn3ccc(C)cc3n2)c1OC | 632
28 | CCN1c2cc(C(=O)NC3CCCCC3)ccc2C(=O)N2CCCCC21 (stereo unspecified) | 853
29 | Brc1ccc(Nc2nc(-c3ccc4c(c3)OCO4)cs2)nc1 | 1150
30 | CCn1c(C2CCN(C(=O)c3ccoc3)C2)nc2cccnc21 (stereo unspecified) | 604
31 | COc1ccc(-c2nc3cccnc3n2C2CCN(S(=O)(=O)c3ccccc3)C2)cc1 (stereo unspecified) | 778
32 | Cc1cc(C)cc(-n2c(CN3CCN(C(=O)Nc4ccc5c(c4)OCCO5)CC3)nc3cccnc32)c1 | 693
33 | CCCCNC(=O)C1c2cc(OC)c(OC)cc2C(=O)N(C)C1c1ccc(OC)cc1 (stereo unspecified) | 764
34 | Cc1ccc(S(=O)(=O)Nc2ccc(-c3cn4ccc(C)nc4n3)cc2)cc1 | 646
35 | CCSc1nnc(NC(=O)Cc2csc(NC(=O)c3ccc4c(c3)OCO4)n2)s1 | 804
36 | CCn1cnnc1C1CCCCN1S(=O)(=O)c1ccc(C#N)cc1 (stereo unspecified) | 695

Source: the METLIN SMRT retention time set (Domingo-Almenara et al. 2019)
